According to US20070286895A1, “WOUND DRESSING” (BRISTOL-MYERS SQUIBB COMPANY, priority 2002, published 2007):

Tested on: human whole skin
Experiment: Whole skin silver staining study, Franz type diffusion cell (Example 2)
Details: dressing hydrated with 200 μl saline, 24 hours, 32° C., FIG. 1
Description: Skin staining studies were carried out using an adaptation of a Franz type horizontal glass diffusion cell as described in Dugard et al, 1984. Whole human skin and wound tissue samples (1 cm^2 discs) were punched out using an Osborne arch punch and placed epidermal side uppermost on the receptor chamber. The donor chamber was then gently placed on top of the receptor chamber. The whole cell was clamped together and placed into a water bath maintained at 32° C.±1° C. The underlying whole skin was bathed in saline.
Individual silver-containing wound dressings (0.64 1 cm^2) were cut out and placed onto the centre of a piece of human whole skin. 200 μl of saline was placed into the donor chamber to hydrate each dressing to mimic a moderately exuding wound. Appoximately 5-10 mg of Flamazine cream was placed onto the skin and gently smoothed over the exposed skin surface by means of a small spatula. […] Each cell was left for 24 hours and images were taken using a Polaroid digital microscope camera.

## O=[N+]([O-])[O-].[Ag+] [silver nitrate]
  silver staining of skin: significant silver staining
